This is an account of results in publication PMC8279156, “Design, synthesis, HER2 inhibition and anticancer evaluation of new substituted 1,5-dihydro-4,1-benzoxazepines” (Journal of Enzyme Inhibition and Medicinal Chemistry, 2021).

Like-named read-outs stand apart in the source and are kept apart here. Where only a bound is given, the exact number is not on record here.

The subject of data set [1] is SKBR3 human breast cancer cell line. On the set-up: method as in PMID 24946763. Particulars: mean ± SD; cited from earlier work.
Data set [2] relates to A-375 human melanoma cancer cell line. In words: Proliferation assay (sulphorhodamine-B) in A-375. The data set is classed as cell-based. Particulars: 72 h of treatment, mean ± SD, read-out: IC50 A375. Here is the method: (§1) MCF-7, HCT-116, A-375 and SKBR cells were grown at 37 °C in an atmosphere containing 5% CO2, with Dulbecco’s modified Eagle Medium (DMEM) (Gibco, Grand Island, NY) supplemented with 10% heat-inactivated foetal bovine serum (FBS) (Gibco), 2% L-glutamine, 2.7% sodium bicarbonate, 1% Hepes buffer, 40 mg/L gentamicin and 500 mg/L ampicillin.
(§2) Compounds were dissolved in DMSO and stored at −20 °C. For each experiment, the stock solutions were further diluted in medium to obtain the desired concentrations. The final solvent concentration in cell culture was ≤ 0.1% v/v of DMSO, a concentration without any effect on cell replication. Parallel cultures of MCF-7, HCT-116, A375 and SKBR-3 cells in medium with DMSO were used as controls.
(§3) The effect of the compounds on cell viability was assessed using the sulphorhodamine-B colorimetric assay. Cells suspension (1 × 10^3 cells/well) were seeded onto 24-well plates and incubated for 24 h. The cells were then treated with different concentrations of drugs in their respective culture medium and maintained with the treatment for 3 days. Three days later, wells were aspirated and fresh medium and drug were added. Then cell cultures were maintained for 3 additional days. Thereafter, a Titertek Multiscan (Flow, Irvine, CA) at 492 nm was used. The linearity of the SRB assay was evaluated with a cell number for each cell stock before each cell growth experiment. The IC50 values were calculated from semi-logarithmic dose–response curves by linear interpolation. All the experiments were plated in triplicate wells and were carried out twice.
(§4) We then investigated the effects of the target compounds on cell proliferation on the human breast cancer cell lines MCF-7 and SKBR-3, the human colon carcinoma cell line HCT-116 and the human malignant melanoma cell line A-375. The antiproliferative activity of 7–9 was evaluated using sulphorhodamine-B colorimetric assay after 72 h of treatment (Table 3).
(§5) All experiments were conducted in duplicate and gave similar results. The data are mean ± SD of three independent determinations. MCF-7: human breast cancer cell line; SKBR3: human breast cancer cell line; HCT-116: human colon cancer cell line and A-375: human melanoma cancer cell line.

Data set [3] concerns MCF-7 human breast cancer cell line. Particulars: cited from earlier work.
In data set [4] the test system is HCT-116 human colon cancer cell line. On the set-up: method as in PMID 21126804. As to conditions: mean ± SD; cited from earlier work.
The next data set has as its target isolated HER2 (Homo sapiens, UniProt P04626). In words: HER2 inhibition assay, radiometric protein kinase assay (33PanQinase Activity Assay). The data set is classed as biochemical. As to conditions: for IC50: isolated HER2, radiometric assay, 10 concentrations in singlicate. The protocol: The IC50 profile of the target compounds was determined using isolated HER2. IC50 values were measured by testing 10 concentrations (1 × 10 ^−4 M to 3 × 10 ^−9 M) of each compound in singlicate. A radiometric protein kinase assay (33PanQinase® Activity Assay) was used for measuring the kinase activity of HER2. The assay was performed in 96-well FlashPlatesTM from PerkinElmer (Boston, MA) in a 50 µl reaction volume. […] The reaction cocktails were incubated at 30 °C for 60 min. The reaction was halted with 50 µl of 2% (v/v) H3PO4, plates were aspirated and washed two times with 200 µl 0.9% (w/v) NaCl. Incorporation of ^33Pi was determined with a microplate scintillation counter (Microbeta, Wallac, Waltham, MA).
Human epidermal growth factor receptor 2 (HER2) is overexpressed in about 20% of all breast cancers. […] This prompted us to evaluated compounds 7–9 for their in vitro HER2 inhibitory effect. The IC50 profile of the target compounds was determined against isolated HER2 using a radiometric assay (Table 1).

The test system of another data set is cytochrome c. In words: Western blot, cytochrome c expression in SKBR cells. It is filed as cell-based, human. Particulars: 5 µM. Here is the method: (§6) We performed a western blot to study differences in protein expression after treatment with 5 µM of 7c.
(§7) SKBR cells seeded on 6-well plates were treated during 4 h and 16, lysed using RIPA Lysis Buffer System (Santa Cruz Biotechnology, Santa Cruz, CA) and quantified by Pierce™ BCA Protein Assay Kit (Thermo Fisher Scientific, Waltham, MA). Western blot was realised using 4× Laemmli sample buffer (Bio-Rad, Hercules, CA) and separated by SDS-polyacrylamide gel electrophoresis (SDS–PAGE) and then, transferred to PVDF membranes. Blocking was realised with milk in PBS 5%.
(§8) The following primary antibodies were used to detect protein expression,: caspase 3: ref-9662S (Cell Signalling, Beverly, MA), caspase 1(14F468): sc-56036 (Santa Cruz Biotechnology, Santa Cruz, CA), cytochrome-c (A-8): sc-13156 (Santa Cruz Biotechnology, Santa Cruz, CA), Bax(B-9): sc-7480 (Santa Cruz Biotechnology, Santa Cruz, CA) and β-actin: sc-47778 (Santa Cruz Biotechnology, Santa Cruz, CA). […] Protein–antibody complexes were made visible using enhanced chemiluminescence (ECL, Bonus, Amersham, Little Chalfont, UK) with the program IMAGE READER LAS-4000 in a LAS-4000 imaging system. Quantity One program were used to analyse the intensity of the signal. […]
For orientation: Immunoblotting shows a protein as a band on a membrane.

For data set [5], the system named is SKBR3 human breast cancer cell line. In words: Proliferation assay (sulphorhodamine-B) in SKBR3. The data set is classed as cell-based. As to conditions: SK-BR-3, 72 h of treatment, mean ± SD. Here is the method:
as §1, §2, §3, §4, §5

The next data set deals with HER2. In words: Western blot, HER2 expression in SKBR cells. It is filed as cell-based, human. Particulars: 5 µM. Here is the method: as §6, §7, §8
The test system of a further data set is Bax. In words: Western blot, Bax expression in SKBR cells. It is filed as cell-based, human. Particulars: 5 µM, 4 h and 16 h, control and treated cells. The protocol:
as §6, §7, §8

Data set [6] concerns MCF-7 human breast cancer cell line. In words: Proliferation assay (sulphorhodamine-B) in MCF-7. It is filed as cell-based. Particulars: MCF7, 72 h of treatment, mean ± SD. Here is the method:
as §1, §2, §3, §4, §5

Another data set concerns caspase 1. In words: Western blot, caspase 1 expression in SKBR cells. The data set is classed as cell-based, human. As to conditions: 5 µM, 16 h of exposition. Here is the method: as §6, §7, §8
The next data set concerns pro-caspase 3. In words: Western blot, pro-caspase 3 expression in SKBR cells. It is filed as cell-based, human. As to conditions: 5 µM. Here is the method:
as §6, §7, §8

Data set [7] has as its system HCT-116 human colon cancer cell line. Briefly: Proliferation assay (sulphorhodamine-B) in HCT-116. It is filed as cell-based. Particulars: 72 h of treatment, mean ± SD. The protocol:
as §1, §2, §3, §4, §5

Sequence of isolated HER2 (P04626 23-1255): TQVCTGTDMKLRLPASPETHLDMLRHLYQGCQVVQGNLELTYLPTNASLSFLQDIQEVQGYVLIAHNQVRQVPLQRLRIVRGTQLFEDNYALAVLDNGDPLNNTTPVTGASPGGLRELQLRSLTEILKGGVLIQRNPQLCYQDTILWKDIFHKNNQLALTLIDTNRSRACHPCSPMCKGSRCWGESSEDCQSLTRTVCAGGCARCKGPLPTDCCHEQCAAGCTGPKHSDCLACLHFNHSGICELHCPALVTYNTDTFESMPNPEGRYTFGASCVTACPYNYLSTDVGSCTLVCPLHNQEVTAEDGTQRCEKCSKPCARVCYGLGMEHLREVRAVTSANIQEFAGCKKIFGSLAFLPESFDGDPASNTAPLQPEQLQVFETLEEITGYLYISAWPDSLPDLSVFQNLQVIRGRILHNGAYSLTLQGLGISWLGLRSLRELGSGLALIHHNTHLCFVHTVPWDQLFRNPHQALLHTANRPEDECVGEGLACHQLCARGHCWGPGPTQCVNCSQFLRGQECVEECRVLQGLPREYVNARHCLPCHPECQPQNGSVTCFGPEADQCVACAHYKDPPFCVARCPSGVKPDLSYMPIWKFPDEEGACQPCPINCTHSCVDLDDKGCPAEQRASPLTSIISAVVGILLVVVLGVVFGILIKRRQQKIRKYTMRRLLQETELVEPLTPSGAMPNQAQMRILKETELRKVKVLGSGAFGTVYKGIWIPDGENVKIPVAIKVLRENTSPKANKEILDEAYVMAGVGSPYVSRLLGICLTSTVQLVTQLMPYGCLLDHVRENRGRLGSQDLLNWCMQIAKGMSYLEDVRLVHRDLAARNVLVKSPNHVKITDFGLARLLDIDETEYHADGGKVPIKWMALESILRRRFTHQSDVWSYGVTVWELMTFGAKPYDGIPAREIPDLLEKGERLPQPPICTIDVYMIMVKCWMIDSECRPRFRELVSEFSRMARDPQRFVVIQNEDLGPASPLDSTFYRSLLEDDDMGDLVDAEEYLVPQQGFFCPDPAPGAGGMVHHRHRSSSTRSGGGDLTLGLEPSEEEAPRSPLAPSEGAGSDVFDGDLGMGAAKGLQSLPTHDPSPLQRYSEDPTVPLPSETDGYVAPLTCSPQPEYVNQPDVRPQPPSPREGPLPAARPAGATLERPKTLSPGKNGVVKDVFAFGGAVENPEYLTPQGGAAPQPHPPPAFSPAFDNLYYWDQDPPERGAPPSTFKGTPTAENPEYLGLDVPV

On to `O=[N+]([O-])c1ccc(S(=O)(=O)N2CC(n3cnc4c(Cl)nc(Cl)nc43)OCc3ccccc32)cc1` (racemic) [Compound 3, (RS)-2,6-dichloro-9-[1-(p-nitrobenzenesulfonyl)-1,2,3,5-tetrahydro-4,1-benzoxazepine-3-yl]-9H-purine], for which the IC50 in data set [1] was 330 nM; in data set [2], 1050 ± 10 nM; in data set [3] (mean ± SD, read-out: IC50 MCF-7), 350 ± 10 nM; in data set [3] (previously described compounds, introduction, no reference number printed at the values, read-out: IC50 against the MCF-7 cell line), 355 nM; in data set [4] it was 570 ± 20 nM; against isolated HER2, 27900 nM.

`Cc1ccc(S(=O)(=O)N2CC(n3cnc4c(Cl)nc(Cl)nc43)OCc3ccccc32)cc1` (stereo not drawn) [Compound 7c, 2,6-Dichloro-9-[1-(p-methylbenzenesulfonyl)-1,2,3,5-tetrahydro-4,1-benzoxazepine-3-yl]-9H-purine] displayed a melting point of 193 to 195 °C. Further, the “cytochrome c expression, normalised value relative to control (value 1)” value in the data set on cytochrome c (4 h of treatment) was determined as 0.93. The “cytochrome c expression, normalised value relative to control (value 1)” value with cytochrome c (16 h of treatment) worked out at 0.70. In [5], this molecule showed an IC50 of 420 ± 10 nM. In addition, in the data set on HER2 (4 h of treatment), the “HER2 expression, normalised with β-actin and relative to control (value 1)” value came to 0.48. Besides, the “HER2 expression, normalised with β-actin and relative to control (value 1)” value in the data set with HER2 (16 h of treatment) stood at 0.07. For the same molecule, in data set [2], the IC50 was determined as 780 ± 50 nM. In the data set on Bax, the “Bax expression (western blot)” value is on record as “none expression of Bax”. Half-maximal inhibition in data set [6] (IC50) was put at 860 ± 60 nM. The “caspase 1 expression, normalised value relative to control (value 1)” value in the data set on caspase 1 amounted to 3.1. Further, the “pro-caspase 3 expression, normalised value relative to control (value 1)” value in the data set on pro-caspase 3 (4 h after treatment) is 1.18. For the same molecule, in the data set on pro-caspase 3 (16 h after treatment), the “pro-caspase 3 expression, normalised value relative to control (value 1)” value is 0.43. Inhibition in data set [7] was half-maximal at 860 ± 30 nM (IC50). Besides, the “ΔΔG Experiment (3 -> L)” value on isolated HER2 (binding free energy difference relative to bozepinib (3), extracted from IC50 values) is listed as above 0.76 kcal/mol. The same molecule registered an IC50 against isolated HER2 above 100000 nM.

A word on the IC50: it is the midpoint of a concentration-inhibition curve. As usually defined, the melting point is the temperature, or range, at which the solid turns liquid.
